Each structure is given as a SMILES string. Read-outs that look alike come from different tables or passages of the source.

For orientation: CC50 means the concentration at which the toxic effect on the cells reaches its halfway point. One may read the IC50 as the concentration needed to halve the response being measured.

Data set [1] can be described thus: Cytotoxicity evaluation, MTT. In kind it is cell-based, human. As to conditions: human. The method, then:
These cells are a commonly used human hepatocarcinoma-derived cell line that has characteristics similar to those of primary hepatocytes. These cells express many hepatocyte-specific metabolic enzymes, thus enabling the cytotoxicity of tested product metabolites to be evaluated. […] Duplicate assays were performed for each sample. Each well was microscopically examined for precipitate formation before the medium was aspirated from the wells. After aspiration, 100 µl of MTT solution (0.5 mg/ml in medium without FCS) were then added to each well. […] The MTT solution was removed, and DMSO (100 µl) was added to dissolve the resulting blue formazan crystals. Plates were shaken vigorously (300 rpm) for 5 min. The absorbance was measured at 570 nm with 630 nm as reference wavelength in a BIO-TEK ELx808 Absorbance Microplate Reader. DMSO was used as blank and doxorubicin (Sigma Aldrich) as positive control. Cell viability was calculated as percentage of control (cells incubated without compound). The CC50 was determined from the dose-response curve using the TableCurve 2D version 5.0 software (Systat Software, San Jose, CA)

Data set [2] has as its system T. brucei brucei AnTat 1.9. Briefly: In vitro antitrypanosomal activity, Alamar Blue assay. In kind it is cell-based. As to conditions: for Selectivity index HepG2/Tryp.: SI = CC50 HepG2 / IC50 Trypanosoma brucei brucei; for IC50: Trypanosoma brucei, slender bloodstream trypomastigotes, AnTat 1.9 strain, read-out: Trypanosoma brucei brucei IC50 values, Trypanos Antat 1.9. The method, then:
The effects of the tested compounds on the growth of T. brucei brucei were assessed using an Alamar Blue® assay described by Räz et al.[49] T. brucei brucei AnTat 1.9 (IMTA, Antwerpen, Belgium) was cultured in MEM with Earle’s salts, supplemented according to the protocol of Baltz et al.[50] with the following modifications: 0.5 mM mercaptoethanol (Sigma Aldrich), 1.5 mM L-cysteine (Sigma Aldrich), 0.05 mM bathocuproine sulphate (Sigma Aldrich), and 20% heat-inactivated horse serum (Gibco, France) at 37 °C and 5% CO2. Samples were incubated at an average density of 2000 parasites/well in sterile 96-wells plates (Fisher, France) with various concentrations of compounds dissolved in 0.9% NaCl. All doses were tested in duplicate. Appropriate controls treated with solvents 0.9% NaCl or DMSO or with suramin, pentamidine, eflornithine, and fexinidazole (reference drugs purchased from Sigma Aldrich and Fluorochem, UK) were added to each set of experiments. After 69 h incubation period at 37 °C, 10 µl of the viability marker Alamar Blue (Fisher) was added to each well, and the plates were incubated for 5 h. The plates were read in a PerkinElmer ENSPIRE (Germany) microplate reader using an excitation wavelength of 530 nm and an emission wavelength of 590 nm. […] IC50 values were calculated using a nonlinear regression analysis of dose-response curves performed using GraphPad Prism software (La Jolla, CA). IC50 values were calculated from three independent experiments.
A general note: The colour change of resazurin is a common sign of viable cells or microbes.

In data set [3] the test system is P. falciparum CQ-sensitive strain 3D7. Briefly: In vitro antiplasmodial activity, SYBR Green I fluorescence-based method, strain 3D7. In kind it is cell-based. Conditions: for IC50: Plasmodium falciparum, chloroquine-sensitive strain 3D7, 48 h incubation, read-out: P. falciparum strains IC50 values, 3D7; for Selectivity index HepG2/3D7: SI = CC50 HepG2 / IC50 P. falciparum 3D7. The procedure:
The in vitro antiplasmodial activities were tested over concentrations ranging from […] against culture-adapted P. falciparum reference strains 3D7 and W2. […] The parasites were cultivated in RPMI medium (Sigma-Aldrich, Lyon, France) supplemented with 0.5% Albumax I (Life Technologies Corporation, Paisley, UK), hypoxanthine (Sigma-Aldrich), and gentamicin (Sigma-Aldrich) with human erythrocytes and were incubated at 37 °C in a candle jar, as described previously[43] .The P. falciparum drug susceptibility test was carried out in 96-well flat-bottom sterile plates in a final volume of 250 µl. After 48 h incubation period with the drugs, quantities of DNA in treated and control cultures of parasites in human erythrocytes were quantified using the SYBR Green I (Sigma-Aldrich) fluorescence-based method[44]^,[45]. Briefly, after incubation, plates were frozen at −20 °C until use. Plates were then thawed for 2 h at room temperature, and 100 µl of each homogenised culture was transferred to a well of a 96-well flat-bottom sterile black plate (Nunc, Inc., Rochester, NY) that contained 100 µl of the SYBR Green I lysis buffer (2xSYBR Green, 20 mM Tris base pH 7.5, 5 mM EDTA, 0.008% w/v saponin, 0.08% w/v Triton X-100). […] Plates were incubated for 1 h at room temperature and then read on a fluorescence plate reader (Tecan, Grödig, Austria) using excitation and emission wavelengths of 485 and 535 nm, respectively. IC50 values were calculated by non-linear regression analysis of data from dose-response curves, using TableCurve 2D version 5.0 software (Systat Software, San Jose, CA). IC50 values are reported as means calculated from three independent experiments.

The subject of data set [4] is L. donovani (MHOM/IN/00/DEVI) promastigotes. Briefly: In vitro antileishmanial activity, MTT assay on promastigotes. In kind it is cell-based. Conditions: Leishmania donovani, 72 h incubation, ≥10 = no activity noted at the highest concentration tested. The method, then:
L. donovani (MHOM/IN/00/DEVI) used in this study was provided by the CNR Leishmania (Montpellier, France). The effects of the tested compounds on the growth of L. donovani (MHOM/IN/00/DEVI) promastigotes were assessed by MTT assay. Briefly, promastigotes in log-phase in Schneider’s medium supplemented with 20% foetal calf serum (FCS), 2 mM L-glutamine and antibiotics (100 U/ml penicillin and 100 µg/ml streptomycin), were incubated at an average density of 10^6 parasites/ml in sterile 96-well plates with various concentrations of compounds dissolved in DMSO (final concentration less than 0.5% v/v), in duplicate. Appropriate controls treated with DMSO and amphotericin B (reference drug purchased from Sigma-Aldrich) were added to each set of experiments. After 72 h incubation period at 27 °C, parasite metabolic activity was determined. Each well was microscopically examined for precipitate formation. To each well was added 20 µl of 5 mg/ml MTT [3–(4,5-dimethylthiazol-2-yl)-2,5-diphenyltetrazolium bromide)] solution followed by 4 h incubation time. The enzyme reaction was stopped by addition of 100 µl of 50% isopropanol/10% sodium dodecyl sulfate. Plates were vigorously shaken (300 rpm) for 10 min, and the absorbance was measured at 570 nm in a BIO-TEK ELx808 Absorbance Microplate Reader. […] IC50 of the parasite’s growth (half maximal inhibitory concentration or IC50 values) were then calculated from the obtained experimental results using a previously described regression programme.
For orientation: Tetrazolium dyes change colour on reduction, which living cells bring about.

With `CN1CCN(CCCNCc2cccc(-c3cc(-c4cccc(CNCCCN5CCN(C)CC5)c4)c4ccccc4n3)c2)CC1` [Compound 1r, 2,4-Bis{3-[(3–(4-methylpiperazin-1-yl)propyl)aminomethyl]phenyl}quinoline], the CC50 at 72 h in data set [1] is 4970 ± 300 nM. The “Selectivity index HepG2/Tryp.” value in data set [2] is given as 3.65. The IC50 is 1360 ± 194 nM in data set [2], 1950 ± 774 nM in data set [3] and no less than 10000 nM in data set [4]. Also, the “Selectivity index HepG2/3D7” value in data set [3] stood at 2.55.
`CN1CCN(CCCNCc2cccc(-c3nc(-c4cccc(CNCCCN5CCN(C)CC5)c4)c4ccccc4n3)c2)CC1` [Compound 3t, 2,4-Bis{3-[(3–(4-methylpiperazin-1-yl)propyl)aminomethyl]phenyl}quinazoline] gave a CC50 at 72 h in data set [1] of 29600 ± 2200 nM. For the same molecule, in data set [2], the “Selectivity index HepG2/Tryp.” value turned out to be 14.42 and the IC50 was determined as 2050 ± 535 nM. Besides, in data set [3], the IC50 is 2240 ± 435 nM and the “Selectivity index HepG2/3D7” value was determined as 13.20. The molecule also showed an IC50 in data set [4] of no less than 10000 nM.
Consider `COc1ccc2c(-c3ccc(CNCCCN(C)C)cc3)nc(-c3ccc(CNCCCN(C)C)cc3)nc2c1` [Compound 3n, 7-Methoxy-2,4-bis{4-[(3-dimethylaminopropyl)aminomethyl]phenyl}quinazoline], for which the CC50 at 72 h in data set [1] amounted to 2710 ± 300 nM. Further, in data set [2], the “Selectivity index HepG2/Tryp.” value was 2.58 and the IC50 is 1050 ± 58 nM. For the same molecule, in data set [3], the IC50 is 2520 ± 237 nM and the “Selectivity index HepG2/3D7” value is recorded as 1.08. For the same molecule, the IC50 in data set [4] was no less than 10000 nM.
For `c1cc(CNCCCN2CCOCC2)cc(-c2nc(-c3cccc(CNCCCN4CCOCC4)c3)c3ccccc3n2)c1` [Compound 3u, 2,4-Bis{3-[(3-morpholinopropyl)aminomethyl]phenyl}quinazoline], in data set [1], the CC50 at 72 h worked out at 2640 ± 200 nM. Further, the “Selectivity index HepG2/Tryp.” value in data set [2] is 3.67. The IC50 in data set [2] was 720 ± 70 nM; in data set [3], 430 ± 142 nM; in data set [4], no less than 10000 nM. Moreover, in data set [3], the “Selectivity index HepG2/3D7” value was 6.14.
With `CN1CCN(CCCNCc2ccc(-c3nc(-c4ccc(CNCCCN5CCN(C)CC5)cc4)c4ccccc4n3)cc2)CC1` [Compound 3e, 2,4-Bis{4-[(3–(4-methylpiperazin-1-yl)propyl)aminomethyl]phenyl}quinazoline], in data set [1], it took 15900 ± 1700 nM to reach half-maximal cytotoxicity (CC50 at 72 h). The “Selectivity index HepG2/Tryp.” value in data set [2] was 6.64. For the same molecule, the figures for the IC50 in data set [2], in data set [3] and in data set [4] were 2390 ± 129 nM, 1520 ± 172 nM and no less than 10000 nM, respectively. For the same molecule, the “Selectivity index HepG2/3D7” value in data set [3] came out at 10.44.
Take `CSc1ccc(OCc2ncc([N+](=O)[O-])n2C)cc1` [Fexinidazole, reference compound]: in data set [2], the IC50 was determined as 590 ± 39 nM.
With `NCCCC(N)(C(=O)O)C(F)F` (centres unmarked) [Eflornithine, reference compound], in data set [2], the IC50 was 15200 ± 640 nM.
`COc1cccc2c1C(=O)c1c(O)c3c(c(O)c1C2=O)C[C@@](O)(C(=O)CO)C[C@@H]3O[C@H]1C[C@H](N)[C@H](O)[C@H](C)O1` [Doxorubicin, reference compound]: in data set [1] (HepG2 cells, 72 h, read-out: Cytotoxicity to HepG2 cells CC50 values), the CC50 at 72 h amounted to 60 ± 20 nM.
In data set [1], `CN(C)CCCCNCc1ccc(-c2cc(-c3ccc(CNCCCCN(C)C)cc3)c3ccccc3n2)cc1` [Compound 1a, 2,4-Bis{4-[(4-dimethylaminobutyl)aminomethyl]phenyl}quinoline] gave a CC50 at 72 h of 5910 ± 1500 nM. Further, in data set [2], the “Selectivity index HepG2/Tryp.” value stood at 7.03. The IC50 in data set [2] is 840 ± 33 nM; in data set [3], 4080 ± 488 nM; in data set [4], no less than 10000 nM. Besides, in data set [3], the “Selectivity index HepG2/3D7” value stood at 1.45.
Turning to `Cc1ccc(C(=O)Nc2ccc(S(=O)(=O)O)c3cc(S(=O)(=O)O)cc(S(=O)(=O)O)c23)cc1NC(=O)c1cccc(NC(=O)Nc2cccc(C(=O)Nc3cc(C(=O)Nc4ccc(S(=O)(=O)O)c5cc(S(=O)(=O)O)cc(S(=O)(=O)O)c45)ccc3C)c2)c1` [Suramine, reference compound], in data set [2], the IC50 was 30 ± 3 nM.
`CN(C)CCCNCc1cccc(-c2cc(-c3cccc(CNCCCN(C)C)c3)c3ccccc3n2)c1` [Compound 1q, 2,4-Bis{3-[(3-dimethylaminopropyl)aminomethyl]phenyl}quinoline]: in data set [1], the CC50 at 72 h stood at 6740 ± 700 nM. In data set [2], the “Selectivity index HepG2/Tryp.” value amounted to 5.18 and the IC50 worked out at 1300 ± 101 nM. In data set [3], the IC50 stood at 1440 ± 128 nM and the “Selectivity index HepG2/3D7” value was found to be 4.68. Further, the IC50 in data set [4] is no less than 10000 nM.
For `c1ccc2c(-c3ccc(CNCCN4CCOCC4)cc3)cc(-c3ccc(CNCCN4CCOCC4)cc3)nc2c1` [Compound 1h, 2,4-Bis{4-[(2-morpholinoethyl)aminomethyl]phenyl}quinoline], the CC50 at 72 h in data set [1] amounted to 4500 ± 400 nM. Also, the “Selectivity index HepG2/Tryp.” value in data set [2] was found to be 2.83. Also, the IC50 in data set [2] is 1590 ± 71 nM; in data set [3] it was 1340 ± 173 nM; in data set [4], no less than 10000 nM. In data set [3], the “Selectivity index HepG2/3D7” value is recorded as 3.36.
In turn, `CN(C)CCCNCc1cccc(-c2nc(-c3cccc(CNCCCN(C)C)c3)c3ccccc3n2)c1` [Compound 3s, 2,4-Bis{3-[(3-dimethylaminopropyl)aminomethyl]phenyl}quinazoline] gave a CC50 at 72 h in data set [1] of 1140 ± 400 nM. In addition, in data set [2], the “Selectivity index HepG2/Tryp.” value was found to be 0.55 and the IC50 was found to be 2070 ± 196 nM. In data set [3], the IC50 was 1130 ± 107 nM and the “Selectivity index HepG2/3D7” value is reported as 1.01. Besides, the IC50 in data set [4] was no less than 10000 nM.
In turn, `C[C@@H]1[C@H](O)[C@@H](C)/C=C/C=C/C=C/C=C/C=C/C=C/C=C/[C@H](O[C@@H]2O[C@H](C)[C@@H](O)[C@H](N)[C@@H]2O)C[C@@H]2O[C@](O)(C[C@@H](O)C[C@@H](O)[C@H](O)CC[C@@H](O)C[C@@H](O)CC(=O)O[C@H]1C)C[C@H](O)[C@H]2C(=O)O` [Amphotericin B, reference compound] yielded an IC50 in data set [4] of 100 ± 40 nM.

The record behind these values is publication PMC6968685 (Journal of Enzyme Inhibition and Medicinal Chemistry, 2020).
